Test results published in the NIST ThermoML archive (doi:10.1016/j.jct.2012.06.014).

Experiment: cn = amount concentration of the nth substance listed, in mol/dm3
Details: 298.15 K, 101 kPa, Liquid, Open capillary

## O=S(=O)([O-])[O-].O=S(=O)([O-])[O-].O=S(=O)([O-])[O-].[Fe+3].[Fe+3] [ferric sulfate] + O
c1 = 0.05
  binary diffusion coefficient: 1.48e-09 m2/s
c1 = 0.06
  binary diffusion coefficient: 1.45e-09 m2/s
c1 = 0.08
  binary diffusion coefficient: 1.42e-09 m2/s
c1 = 0.1
  binary diffusion coefficient: 1.41e-09 m2/s
c1 = 0.15
  binary diffusion coefficient: 1.42e-09 m2/s
c1 = 0.2
  binary diffusion coefficient: 1.48e-09 m2/s
